Patent publication US9920045B2, “Solid state forms of a PDE10 inhibitor” (Omeros Corporation, priority 2015, dated 2018)

Assays:
[1] = Dynamic vapor sorption (gravimetric moisture sorption analysis); assay type: physicochemical; conditions: for hygroscopicity by moisture sorption analysis / moisture absorbed at 60% RH / moisture absorbed at 90% RH: 25° C.; for XRPD of the post moisture sorption sample: dried at 0% RH and 60° C. for 2 hours after sorption; for moisture absorbed at 60% RH / moisture absorbed at 90% RH: moisture sorption
Description: Gravimetric moisture sorption experiments were carried out on all materials by first holding the sample at 40% RH and 25° C. until an equilibrium weight was reached or for a maximum of four hours. The sample was then subjected to an isothermal (25° C.) adsorption scan from 40 to 90% RH in steps of 10%. The sample was allowed to equilibrate to an asymptotic weight at each point for a maximum of four hours. Following adsorption, a desorption scan from 85 to 5% RH (at 25° C.) was run in steps of −10%, again allowing a maximum of four hours for equilibration to an asymptotic weight. An adsorption scan was then performed from 0% RH to 40% RH in steps of +10% RH. The sample was then dried for no less than two hours at 60° C. and the resulting solid analyzed by XRPD.
Compound (I), Form F, was further characterized by thermal analysis (DSC and TGA), Karl Fischer titration, and DVS. […] (FIG. 5). […] (FIG. 6). The weight loss observed on TGA corresponds to the melt on DSC. […] The material absorbed 2.0 wt % moisture at 60% RH and 2.4 wt % moisture at 90% RH (FIG. 7). […] Karl Fisher analysis of the sample indicates a moisture content of 0.6 wt %, which was performed when lab humidity was around 20% RH.
Compound (I), Shifted Form F, was further characterized by thermal analysis (DSC and TGA), Karl Fischer titration, and DVS. […] (FIG. 9). […] (FIG. 10). […] The material absorbs 2.4 wt % moisture at 60% RH and 2.9 wt % moisture at 90% RH (FIG. 11). […] The water content by KF is higher than the weight loss detected by TGA. It is possible that some moisture was slowly carried away by nitrogen stream and not reflected in the weight loss attributed to the thermal event. Characterization of shifted Form F was performed when lab humidity was between 50-60% RH.

[2] = Drying study / ambient exposure, form followed by XRPD; assay type: physicochemical
Description: To understand a change of Form F to shifted Form F, a drying study was conducted wherein a variable hydrate having shifted Form F was dried overnight under vacuum at 50° C. […] This study confirms that Form F absorbs moisture from the atmosphere and depending upon the relative humidity of the environment either remains Form F or converts to Shifted Form F.
XRPD patterns were collected with a PANalytical CubiX-Pro XRD diffractometer using an incident beam of Cu radiation produced using an Optix long, fine-focus source. An elliptically graded multilayer mirror was used to focus CuKα X-rays (1.54 Å) through the specimen and onto the detector. Prior to the analysis, a silicon specimen (NIST SRM 640d) was analyzed to verify the observed position of the Si 111 peak is consistent with the NIST-certified position. A specimen of the sample was sandwiched between 3-μm-thick films and analyzed in transmission geometry. A beam-stop, short antiscatter extension, and antiscatter knife edge were used to minimize the background generated by air. Soller slits for the incident and diffracted beams were used to minimize broadening from axial divergence. Diffraction patterns were collected using a scanning position-sensitive detector (X'Celerator) located 240 mm from the specimen and Data Collector software v. 2.2b. The tube power was set to 45 kV and 40 mA. […]

Compound | hygroscopicity by moisture sorption analysis [1] | XRPD of the post moisture sorption sample [1] | moisture absorbed at 60% RH [1] | moisture absorbed at 90% RH [1] | form after exposure to ambient conditions ([2]; dried material exposed to ambient conditions for 5 days) | XRPD of the dried solid ([2]; dried overnight under vacuum at 50° C.)
CCOC(C(=O)c1ccc(-c2cc(OC)c(Cl)c(OC)c2)o1)c1ccc(-c2nnc(C)s2)cc1 (stereo not shown) [Form F, 1-(5-(4-chloro-3,5-dimethoxyphenyl)furan-2-yl)-2-ethoxy-2-(4-(5-methyl-1,3,4-thiadiazol-2-yl)phenyl)ethanone] | moderately hygroscopic | consistent with Form F | 2.0 wt % | 2.4 wt % | converted back to shifted Form F | –
CCOC(C(=O)c1ccc(-c2cc(OC)c(Cl)c(OC)c2)o1)c1ccc(-c2nnc(C)s2)cc1 (stereo not shown) [shifted Form F, 1-(5-(4-chloro-3,5-dimethoxyphenyl)furan-2-yl)-2-ethoxy-2-(4-(5-methyl-1,3,4-thiadiazol-2-yl)phenyl)ethanone] | moderately hygroscopic | consistent with shifted Form F | 2.4 wt % | 2.9 wt % | – | consistent with Form F
